# US10251835B2, “Cranial delivery of pharmaceuticals” (GLIA, LLC, priority 2013, dated 2019)
# Entries after “also recorded” stand apart in the source; their conditions may differ.
# Key:
# Format in all cases: in vivo, human
# [1] = system: patient with corneal Herpes zoster; test: Treatment of herpetic keratitis; conditions: for intraocular pressure: ganciclovir gel plus progesterone to forehead
# Source text: A person suffered a first onset of active corneal Herpes zoster. They presented with classic Herpes Zoster symptoms including, left hemisphere unilateral skin lesions on forehead, bridge of nose area and down the nose not including the tip; left cornea dendrites, keratitis and edema; loss of functional vision, elevated intraocular pressure as high as 42 mm Hg, conjunctival irritation and redness and anesthetic cornea. There were also general body flu symptoms.
# The patient was initially treated with ophthalmic prednisolone acetate 1% up to 5 times daily, ophthalmic antibiotics, non-prescription ophthalmic wetting agents, and lubrication with gels administered to the eye. Additional drug therapies included systemic oral valcyclovir as high as 2 g per day and medications to reduce intraocular pressure.
# Despite the therapy, symptom flare-up was as frequent as 2 weeks to 1 month over the past 10 years. Although intraocular pressure returned to within the normal range, cataracts formed as a result of long term use of corticosteroids.
# The cornea surface contour became increasingly distorted with prominent ridges. There was incursion of capillaries across the conjunctiva into the cornea, both superficially and deep. Deposition of phospholipids through a leaching process occluded the cornea with grey color deposits on about 50% of its surface.
# Corneal thinning had progressed to near perforation levels which required preparation for corneal patch surgery.
# At this point, 1% topical progesterone (approximately 1 mg of progesterone) was first administered as a method to keep the cornea from perforating and the tear film intact. The drug was applied to the forehead 4 times daily together with topical antibiotics and corticosteroids.
# After stabilizing the cornea, antiviral treatment was begun with ganciclovir gel (0.15%; 0.15 mg of drug) applied five times daily to the forehead together with once daily progesterone (1%; 1 mg of drug) and a nightly drop of ophthalmic antibiotic. Intraocular pressure measured at the onset of ganciclovir treatment was 18 mm Hg.
# The patient reported a decrease in eye strain as a result of an improvement in tear film. […] Over the next two weeks, inflammation was further reduced and visual acuity increased somewhat when the head was tilted back. During the first full month of treatment, the affected eye generally felt comfortable. There was a lack of inflammation, and some vision returned to the threshold of functionality. Intraocular pressure remained normal in the range of 16 mm Hg.
# There was modest improvement in reading the eye chart, and corneal staining due to defects was minimized. Intraocular pressure remained normal in both eyes at about 16 mm Hg during this period. The phospholipid deposits further reduced in density and began to give the appearance of lesser areas of concentrations. Nearly functional vision could be achieved by positioning the head back and viewing through the central cornea. The residual clear area of the cornea became more so and less inflamed. Through the end of the second month, improvement to the cornea accelerated. The pupil was now clearly visible and more light was entering the eye.
# The patient was examined regularly by an ophthalmologist, and after three and one half months of treatment. The intraocular pressure was normal at 12 mm Hg. […] Intraocular pressure has remained in the same range for more than one year.
# patients with dyslexia = test: Treatment of dyslexia and impaired executive brain function exacerbated by traumatic brain injury; conditions: person
# Method: A patient had been diagnosed in childhood with dyslexia. Symptoms included unstable binocular fixation while reading, the inability without compensating to find the end of one line and beginning of the next, and double overlapping perception of lines of print. They were also unable to read aloud in a fluid manner.
# The individual applied a topical gel containing 4% by weight progesterone (4 mg of drug) to the forehead area.
# The application was repeated twice over the next few days and the patient tested themself by reading text.
# Regular treatment was continued for 10 weeks with the 4% progesterone gel applied to the forehead twice daily. The patient reported that in living with dyslexia for 52 years, they had never experienced as much stress relief in their visual system after the treatment.
# After 8 weeks of treatment, the individual was asked to read aloud a complex paragraph of 8 sentences from their computer screen.
# Treatment was interrupted after 10 weeks to determine the duration of benefit.
# Seven years prior to initiation of progesterone topical treatment, the patient had suffered traumatic brain injury (TBI) in an auto accident. They reported exacerbation of their vision problems as a result of the accident.
# After the crash they suffered from post-traumatic stress disorder triggered by loud sounds. The patient could not even listen to music because it would induce nausea. Two months after initiation of the progesterone treatment, they regained a good deal of social conformability, improved their ability to organize thoughts, eliminated their disjointed thinking, and gained the ability to write coherently.
# A person who had been diagnosed with severe reading problems in third grade was later recognized as having dyslexia. Their reading problems became exacerbated by an automobile accident in 1980, following six months of coma. In general reading was a chore. However they made a concerted effort to learn to read, starting with children's books, and is now able to read regular print. Reading issues were exemplified by the need to place a ruler below each line so that they can follow the line and find the next line, and seeing letters backwards. They are not able to read small print at all. About 4 years ago their vision became worse. They were prescribed glasses that they use during periods when vision is worse than usual, whether near, intermediate, or far in distance.
# A 1% progesterone topical composition was applied to forehead. […] The effect lasted from the time of application, around 7:30 pm to bedtime at around 11 pm.
# [2] = system: person with blepharospasm; test: Treatment of blepharospasm; conditions: fourteen days of 1% progesterone gel to forehead; before treatment 73
# Source text: Upon ophthalmic re-examination following fourteen days of 1% progesterone gel applied topically to the forehead, the blink rate had decreased to 18 times per minute.
# [3] = system: male and female with cyclosporine-induced eye irritation; test: Treatment of drug-induced eye irritation; conditions: 1% progesterone to forehead after cleaning off drug residual; within two minutes
# Source text: Ten minutes later, drug residual was cleaned off from the forehead, and 1% progesterone was applied.
# [4] = system: post-surgical patients on glaucoma medication; test: Treatment of ocular discomfort and redness in post-surgical patients and patients on glaucoma medication; conditions: 1% progesterone to forehead, three times daily or 2-3 times then once a day
# Source text: A […] […] had four eye surgeries and was being treated with two glaucoma eye drops (dorzolamide-timolol combination and travaprost) together with a lubricating eye gel twice a day.
# A […] […] had multiple surgeries and was diagnosed with Fuch's corneal dystrophy and narrow angle glaucoma. Prior to the latest surgery, when they were almost legally blind, they started applying to their forehead 1% progesterone 2-3 times a day, then reduced the application frequency to once a day.
# [5] = system: females with wrist fracture pain or wrist arthritis; test: Treatment of pain; conditions: person
# Source text: A person suffered a wrist fracture of the left distal radius and ulnar styloid, with subsequent severe pain.
# A person was diagnosed 10 years ago with arthritis in their right wrist, with pain, weakness, and limited motion in the hand and wrist. […] The condition has worsened since they were first diagnosed. The individual is being treated with regular steroid injections. […] They are able to twist open tightly closed containers. Additionally, bone snapping sounds and feelings are no longer present.
# [6] = system: patient with corneal Herpes zoster; test: Treatment of herpetic keratitis; conditions: one year, 1 mg progesterone to forehead 2 or 3 times a day, no other drugs
# [7] = 1% progesterone topical composition to forehead
smiles,measurement,setting,value
CC(=O)[C@H]1CC[C@H]2[C@@H]3CCC4=CC(=O)CC[C@]4(C)[C@H]3CC[C@]12C [progesterone],corneal deterioration,[1]; 1% progesterone (about 1 mg) to forehead 4 times daily together with topical antibiotics and corticosteroids,Further corneal deterioration was halted
same,"inflammation, visual acuity and state of affected eye","[1]; ganciclovir gel 0.15% (0.15 mg) five times daily plus progesterone 1% (1 mg) once daily to forehead, nightly ophthalmic antibiotic, 1 week to 3.5 months",less inflammation and a slight improvement in visual acuity; also recorded: some functional vision was attained; also recorded: stable and normalizing
same,intraocular pressure,[1]; after three and one half months,12 mm Hg
same,intraocular pressure,"[1]; both eyes, examination period up to third month",about 16 mm Hg
same,intraocular pressure,[1]; first full month of treatment,~16 mm Hg
same,reading and vision (patient report),patients with dyslexia; [7],able to read without using; also recorded: distance vision also improved; also recorded: no longer bothered by the headlight glare; also recorded: Reapplication next morning restored vision improvements
same,time until they could feel a clearing in their head,patients with dyslexia; [7],About 5 minutes
same,reading ability and visual system (patient report),"patients with dyslexia; 4% progesterone gel to forehead, single applications then twice daily up to 10 weeks",effect lasting for hours; also recorded: slightly better and easier reading and line tracking; also recorded: lasted for about four hours; also recorded: able to track from one end of a line of text to the beginning of the next line without using a ruler; also recorded: read aloud with less choppiness; also recorded: accurate and fluid with only one word lapse
same,executive function and stress after traumatic brain injury,"patients with dyslexia; 4% progesterone gel to forehead, two months",improved executive function; also recorded: much lower level of stress; also recorded: ability to do simple math in their head
same,time until eyes relaxed into alignment,patients with dyslexia; gel 4% progesterone (4 mg) to forehead,≤ 60 s
same,duration of benefit after interruption,patients with dyslexia; ten days after stopping 10 weeks of 4% progesterone gel,continued benefit with only slight degradation
same,blink rate,[2],18 times per minute
same,relief of cyclosporine-induced irritation and stinging,[3],irritation and stinging began to dissipate
same,"ocular discomfort, redness and need for lubricating drops",[4],"able to stop using the lubricating drops; also recorded: Redness also disappeared; also recorded: helped to ease irritation, lid sticking and redness"
same,"wrist pain, mobility and strength","[5]; arthritis, five days after applying 1% progesterone to forehead",significantly less wrist pain and increased mobility and strength
same,time to significant decrease in pain,"[5]; wrist fracture, approximately 4 mg progesterone to forehead",≤ 15 min
same,corneal perforation,[6],the cornea remained unperforated
